The term IC50 denotes the concentration at which inhibition is half-maximal. Low values mean higher potency, high ones lower potency.

The assay has as its target Oligo-1,6-glucosidase IMA1 (Saccharomyces cerevisiae S288c, UniProt P53051). In words: Inhibition of baker's yeast alpha-glucosidase by 4-nitrophenolate-based assay.

Chain of Oligo-1,6-glucosidase IMA1 (P53051 whole entry): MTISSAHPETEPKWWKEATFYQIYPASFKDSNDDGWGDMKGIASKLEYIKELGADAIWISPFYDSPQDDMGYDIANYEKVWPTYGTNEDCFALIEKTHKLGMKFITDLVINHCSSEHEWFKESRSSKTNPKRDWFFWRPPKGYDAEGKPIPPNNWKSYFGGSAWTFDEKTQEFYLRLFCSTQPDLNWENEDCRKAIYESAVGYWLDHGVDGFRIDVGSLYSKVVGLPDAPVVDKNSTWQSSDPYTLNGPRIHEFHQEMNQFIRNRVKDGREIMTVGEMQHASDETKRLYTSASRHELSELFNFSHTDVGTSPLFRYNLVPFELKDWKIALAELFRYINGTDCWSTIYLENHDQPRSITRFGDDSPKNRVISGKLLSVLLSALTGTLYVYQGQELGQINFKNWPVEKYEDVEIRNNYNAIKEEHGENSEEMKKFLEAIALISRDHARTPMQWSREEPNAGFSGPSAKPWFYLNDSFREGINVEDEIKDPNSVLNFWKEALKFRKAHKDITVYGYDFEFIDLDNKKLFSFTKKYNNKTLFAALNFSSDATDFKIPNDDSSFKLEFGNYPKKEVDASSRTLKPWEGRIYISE

As for `OCCN1C[C@H](O)[C@@H](O)[C@H](O)[C@H]1CO` [MIGLITOL], the midpoint of inhibition, the IC50, lay at 9.9 mM.
As for `OCCN1C[C@@H](F)[C@@H](O)[C@H](O)[C@H]1CO`, the figure is 2.1 mM.

The record behind these values is ChEMBL document CHEMBL1155187, “Amplification of the inhibitory activity of miglitol by monofluorination” (Bioorg Med Chem Lett, 2009).
